Assay results: the Kinase Knowledgebase extract (Sharma et al. 2016)

Target: MAPK14 (human) (UniProt Q16539)
Assay: Inhibition of LPS Stimulated TNF Production by U937 Cells
Conditions: for inhibition: concentration not given here

MAPK14 (human), sequence (Q16539 whole entry, looked up): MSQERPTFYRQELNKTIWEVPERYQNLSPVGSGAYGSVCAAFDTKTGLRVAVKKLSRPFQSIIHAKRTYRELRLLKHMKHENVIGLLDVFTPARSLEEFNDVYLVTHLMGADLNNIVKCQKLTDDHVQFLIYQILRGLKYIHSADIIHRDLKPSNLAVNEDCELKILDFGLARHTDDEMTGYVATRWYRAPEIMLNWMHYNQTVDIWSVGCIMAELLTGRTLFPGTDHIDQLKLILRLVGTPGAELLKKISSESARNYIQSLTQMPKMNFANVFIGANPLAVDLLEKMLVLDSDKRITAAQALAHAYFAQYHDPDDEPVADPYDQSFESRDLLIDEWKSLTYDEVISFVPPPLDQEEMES

inhibition [%] | IC50 [nM] | SMILES
32 |  | C[C@@H](NC(=O)C(C)(C)C)c1[nH]nc(-c2ccc(F)cc2)c1-c1ccncc1
2 |  | O=C(N[C@H](Cc1ccccc1)c1[nH]nc(-c2ccc(F)cc2)c1-c1ccncc1)[C@H]1CCCN1
10 |  | O=C(NCCCc1[nH]nc(-c2ccc(F)cc2)c1-c1ccncc1)NCc1ccccn1
27 |  | C[C@@H](NC(=O)N(C)C)c1[nH]nc(-c2ccc(F)cc2)c1-c1ccncc1
64 |  | C[C@@H](NC(=O)c1cccc(F)c1F)c1[nH]nc(-c2ccc(F)cc2)c1-c1ccncc1
 | > 1000 | CNC(=O)CC[C@H](NS(=O)(=O)Cc1ccccc1)c1[nH]nc(-c2ccc(F)cc2)c1-c1ccncc1
 | 2780 | O=S(=O)(NCc1[nH]nc(-c2ccc(F)cc2)c1-c1ccncc1)c1ccc(F)cc1
12 |  | CSc1cccc(NC(=O)NCc2[nH]nc(-c3ccc(F)cc3)c2-c2ccncc2)c1
96 |  | C[C@@H](NS(=O)(=O)c1cccc2nonc12)c1[nH]nc(-c2ccc(F)cc2)c1-c1ccncc1
78 |  | O=S(=O)(NCc1[nH]nc(-c2ccc(F)cc2)c1-c1ccncc1)c1ccc(F)c(Cl)c1
29 |  | COc1cc(NC(=O)NCc2[nH]nc(-c3ccc(F)cc3)c2-c2ccncc2)cc(OC)c1OC
 | > 1000 | CN(C)CCCNC(=O)NCCCc1[nH]nc(-c2ccc(F)cc2)c1-c1ccncc1
29 |  | Cc1cccc(C(=O)N[C@@H](C)c2[nH]nc(-c3ccc(F)cc3)c2-c2ccncc2)c1
61 |  | CCCOC(=O)N[C@@H](C)c1[nH]nc(-c2ccc(F)cc2)c1-c1ccncc1
41 |  | C[C@H](NC(=O)N[C@H](C)c1ccccc1)c1[nH]nc(-c2ccc(F)cc2)c1-c1ccncc1
15 |  | CN(C)c1ccc(CNC(=O)NCCCc2[nH]nc(-c3ccc(F)cc3)c2-c2ccncc2)cc1
 | 8240 | COc1ccc(CC(=O)NCc2[nH]nc(-c3ccc(F)cc3)c2-c2ccncc2)cc1
 | 540 | CC(=O)OC(C)(C)C(=O)NCc1[nH]nc(-c2ccc(F)cc2)c1-c1ccncc1
48 |  | C=CCNC(=O)N[C@H](C)c1[nH]nc(-c2ccc(F)cc2)c1-c1ccncc1
83 |  | C[C@@H](NS(=O)(=O)c1cccc(Cl)c1Cl)c1[nH]nc(-c2ccc(F)cc2)c1-c1ccncc1
2 | > 1000 | COc1ccccc1C(=O)N[C@H](Cc1ccccc1)c1[nH]nc(-c2ccc(F)cc2)c1-c1ccncc1
98 |  | C[C@@H](NS(=O)(=O)c1ccc(F)c(Cl)c1)c1[nH]nc(-c2ccc(F)cc2)c1-c1ccncc1
11 |  | O=S(=O)(NCCCc1[nH]nc(-c2ccc(F)cc2)c1-c1ccncc1)c1cccc(C(F)(F)F)c1

inhibition [%] | IC50 [nM] | SMILES
45 |  | O=S(=O)(NCc1[nH]nc(-c2ccc(F)cc2)c1-c1ccncc1)c1cc(Cl)cc(Cl)c1
28 |  | C[C@H](NC(=O)Cc1cccs1)c1[nH]nc(-c2ccc(F)cc2)c1-c1ccncc1
11 |  | Cc1ccccc1C(=O)NCc1[nH]nc(-c2ccc(F)cc2)c1-c1ccncc1
52 |  | CC(C)S(=O)(=O)N[C@H](C)c1[nH]nc(-c2ccc(F)cc2)c1-c1ccncc1
10 |  | O=S(=O)(c1cccc(C(F)(F)F)c1)N1CCC(c2[nH]nc(-c3ccc(F)cc3)c2-c2ccncc2)CC1
95 |  | C[C@H](NS(=O)(=O)c1ccc(C#N)cc1)c1[nH]nc(-c2ccc(F)cc2)c1-c1ccncc1
36 |  | C[C@@H](NC(=O)c1ccc(Cl)cc1)c1[nH]nc(-c2ccc(F)cc2)c1-c1ccncc1
24 |  | N#Cc1ccc(S(=O)(=O)N2CCC(c3[nH]nc(-c4ccc(F)cc4)c3-c3ccncc3)CC2)cc1
32 |  | Cc1noc(C)c1C(=O)N[C@@H](C)c1[nH]nc(-c2ccc(F)cc2)c1-c1ccncc1
78 |  | Cc1ccc(S(C)(=O)=O)cc1S(=O)(=O)N[C@@H](C)c1[nH]nc(-c2ccc(F)cc2)c1-c1ccncc1
90 |  | C[C@@H](NC(=O)c1ccc(F)cc1C(F)(F)F)c1[nH]nc(-c2ccc(F)cc2)c1-c1ccncc1
 | 3270 | O=C(NCc1[nH]nc(-c2ccc(F)cc2)c1-c1ccncc1)c1ccc(F)c(F)c1F
40 |  | O=C(O)c1ccccc1S(=O)(=O)NCCc1[nH]nc(-c2ccc(F)cc2)c1-c1ccncc1
30 |  | CNC(=O)NCc1[nH]nc(-c2ccc(F)cc2)c1-c1ccncc1
 | 539 | Fc1ccc(-c2n[nH]cc2-c2ccnc(NCCN3CCOCC3)c2)cc1
 | 780 | Cc1c(-c2ccncc2)c(-c2ccc(F)cc2)nn1CC(=O)NCCc1ccc(Oc2ccccc2)cc1
 | 97.3 | OCCCNc1cc(-c2c[nH]nc2-c2ccc(F)cc2)ccn1
 | 517 | Fc1cc(-c2c[nH]nc2-c2ccc(F)c(F)c2)ccn1
 | 4210 | CN(C)CCn1cc(-c2ccnc(F)c2)c(-c2ccc(F)cc2)n1
 | 650 | CC(C)C(=O)NCc1[nH]nc(-c2ccc(F)cc2)c1-c1ccncc1
18 |  | C[C@H](NC(=O)c1ccc(F)c(F)c1F)c1[nH]nc(-c2ccc(F)cc2)c1-c1ccncc1
95 |  | C[C@@H](NS(=O)(=O)c1ccc(-c2ccccc2)cc1)c1[nH]nc(-c2ccc(F)cc2)c1-c1ccncc1
23 |  | Cc1c(-c2ccncc2)c(-c2ccc(F)cc2)nn1CC(=O)N[C@H](C)c1cccc2ccccc12

inhibition [%] | IC50 [nM] | SMILES
32 |  | O=C(NCc1[nH]nc(-c2ccc(F)cc2)c1-c1ccncc1)c1cccc(Cl)c1
22 |  | C[C@H](NC(=O)Nc1cccc(F)c1)c1[nH]nc(-c2ccc(F)cc2)c1-c1ccncc1
 | 740 | CCOC(=O)N[C@H](C)c1[nH]nc(-c2ccc(F)cc2)c1-c1ccncc1
9 |  | COC(=O)CCCCCCC(=O)NCc1[nH]nc(-c2ccc(F)cc2)c1-c1ccncc1
9 |  | CC(=O)NCCNC(=O)NCCCc1[nH]nc(-c2ccc(F)cc2)c1-c1ccncc1
 | 1510 | C[C@@H](NC(N)=O)c1[nH]nc(-c2ccc(F)cc2)c1-c1ccncc1
91 |  | C[C@@H](NS(=O)(=O)c1cc(Cl)cc(Cl)c1)c1[nH]nc(-c2ccc(F)cc2)c1-c1ccncc1
 | 440 | C[C@@H](NS(C)(=O)=O)c1[nH]nc(-c2ccc(F)cc2)c1-c1ccncc1
 | > 1000 | O=C(N[C@H](Cc1ccccc1)c1[nH]nc(-c2ccc(F)cc2)c1-c1ccncc1)c1cccc(Br)c1
31 |  | O=C(NCc1[nH]nc(-c2ccc(F)cc2)c1-c1ccncc1)Nc1ccccc1
 | 322 | Cn1cc(-c2ccncc2)c(-c2ccc3c(c2)OCO3)n1
100 |  | O=C(NCc1[nH]nc(-c2ccc(F)cc2)c1-c1ccncc1)c1c(Cl)cc(Cl)cc1Cl
65 |  | Cc1cc(C)c(S(=O)(=O)N[C@H](C)c2[nH]nc(-c3ccc(F)cc3)c2-c2ccncc2)c(C)c1
31 |  | CCCCOc1ccc(S(=O)(=O)NCc2[nH]nc(-c3ccc(F)cc3)c2-c2ccncc2)cc1
 | 5000 | CCCCS(=O)(=O)NCc1[nH]nc(-c2ccc(F)cc2)c1-c1ccncc1
11 |  | O=C(NCc1[nH]nc(-c2ccc(F)cc2)c1-c1ccncc1)Nc1ccc(OC(F)(F)F)cc1
 | > 1000 | CS(=O)(=O)c1ccc(CNC(=O)NCCCc2[nH]nc(-c3ccc(F)cc3)c2-c2ccncc2)cc1
3 |  | O=C(NCc1[nH]nc(-c2ccc(F)cc2)c1-c1ccncc1)c1ccncc1
66 |  | CCCCOc1ccc(C(=O)NCc2[nH]nc(-c3ccc(F)cc3)c2-c2ccncc2)cc1
89 |  | O=S(=O)(NCc1[nH]nc(-c2ccc(F)cc2)c1-c1ccncc1)c1ccc(-c2ccon2)s1
31 |  | CCCNC(=O)Cn1nc(-c2ccc(F)cc2)c(-c2ccncc2)c1C
48 |  | C[C@@H](NC(=O)N1CCCC1)c1[nH]nc(-c2ccc(F)cc2)c1-c1ccncc1
 | 700 | CCN(CC)CCn1cc(-c2ccnc(NCc3ccc(F)cc3)c2)c(-c2ccc(F)cc2)n1

inhibition [%] | IC50 [nM] | SMILES
11 |  | Cc1c(C)c(S(=O)(=O)NCc2[nH]nc(-c3ccc(F)cc3)c2-c2ccncc2)c(C)c2c1OC(C)(C)CC2
21 |  | O=S(=O)(c1ccccc1)N1CCC(c2[nH]nc(-c3ccc(F)cc3)c2-c2ccncc2)CC1
14 |  | O=C(NCc1[nH]nc(-c2ccc(F)cc2)c1-c1ccncc1)c1cnc2ccccc2n1
87 |  | C[C@@H](NC(=O)c1ccccc1Cl)c1[nH]nc(-c2ccc(F)cc2)c1-c1ccncc1
32 |  | C[C@H](NC(=O)c1cccc(F)c1F)c1[nH]nc(-c2ccc(F)cc2)c1-c1ccncc1
29 |  | O=C(NCCc1[nH]nc(-c2ccc(F)cc2)c1-c1ccncc1)c1ccc(Cl)cc1
40 |  | COc1ccc(OC)c(S(=O)(=O)N[C@@H](C)c2[nH]nc(-c3ccc(F)cc3)c2-c2ccncc2)c1
28 |  | O=C(NCc1[nH]nc(-c2ccc(F)cc2)c1-c1ccncc1)NC(=O)c1ccccc1
12 |  | CCCCCCCCS(=O)(=O)NCc1[nH]nc(-c2ccc(F)cc2)c1-c1ccncc1
67 |  | C[C@H](NC(=O)c1c(F)ccc(F)c1F)c1[nH]nc(-c2ccc(F)cc2)c1-c1ccncc1
 | 10000 | COC(=O)CCC(=O)NCc1[nH]nc(-c2ccc(F)cc2)c1-c1ccncc1
36 |  | C[C@H](NC(=O)c1cc(F)cc(C(F)(F)F)c1)c1[nH]nc(-c2ccc(F)cc2)c1-c1ccncc1
58 |  | O=S(=O)(NCc1[nH]nc(-c2ccc(F)cc2)c1-c1ccncc1)c1cc(S(=O)(=O)c2ccccc2)cs1
22 |  | COc1ccc(CC(=O)N[C@@H](C)c2[nH]nc(-c3ccc(F)cc3)c2-c2ccncc2)cc1
48 |  | C[C@H](NC(=O)c1cc2ccccc2s1)c1[nH]nc(-c2ccc(F)cc2)c1-c1ccncc1
18 |  | CN(C)c1cccc2c(S(=O)(=O)N3CCC(c4[nH]nc(-c5ccc(F)cc5)c4-c4ccncc4)CC3)cccc12
 | > 1000 | CC(C)C(=O)N[C@H](Cc1ccccc1)c1[nH]nc(-c2ccc(F)cc2)c1-c1ccncc1
52 |  | COC(=O)NCc1[nH]nc(-c2ccc(F)cc2)c1-c1ccncc1
77 |  | C[C@@H](NC(=O)c1ccc(F)cc1F)c1[nH]nc(-c2ccc(F)cc2)c1-c1ccncc1
50 |  | NC(=O)NCc1[nH]nc(-c2ccc(F)cc2)c1-c1ccncc1
29 |  | O=S(=O)(N[C@H](Cc1ccccc1)c1[nH]nc(-c2ccc(F)cc2)c1-c1ccncc1)c1cccs1
39 |  | Cc1cc(C)c(C(=O)N[C@@H](C)c2[nH]nc(-c3ccc(F)cc3)c2-c2ccncc2)c(C)c1
